Reference: ChEMBL document CHEMBL5442175, “EUbOPEN Chemogenomics Library - PDSP Secondary Binding” (2024)
Counter-ions that a name gives are not always drawn.

Tests used:
D(2) dopamine receptor = D(2) dopamine receptor (Homo sapiens, UniProt P14416); experiment: (§1) PDSP Secondary Binding target: DRD2 - Compounds are tested at 10 uM concentration, plate are incubated at room temperature in the dark for 90 minutes. Reaction are stopped by vacuum filtration onto 0.3% polyethyleneimine soaked filter mats using Filtermate harvester. Scintillation cocktail is then melted onto microwave-dried filters on a hot plate and the radio activity is counted in Microbia counter.
D(2) dopamine receptor, sequence (P14416 whole entry): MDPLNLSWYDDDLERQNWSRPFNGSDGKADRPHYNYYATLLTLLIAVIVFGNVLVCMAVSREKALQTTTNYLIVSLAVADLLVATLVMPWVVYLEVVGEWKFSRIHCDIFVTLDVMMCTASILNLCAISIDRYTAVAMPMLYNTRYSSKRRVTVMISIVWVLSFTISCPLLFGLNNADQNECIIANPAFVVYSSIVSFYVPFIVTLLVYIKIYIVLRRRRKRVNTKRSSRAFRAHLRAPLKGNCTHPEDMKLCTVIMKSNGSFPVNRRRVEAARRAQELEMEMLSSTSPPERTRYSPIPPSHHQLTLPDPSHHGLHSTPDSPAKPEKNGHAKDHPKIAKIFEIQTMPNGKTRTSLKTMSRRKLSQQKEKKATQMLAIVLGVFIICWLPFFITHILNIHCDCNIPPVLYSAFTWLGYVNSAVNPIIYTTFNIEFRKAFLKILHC

D(4) dopamine receptor = biological target: T1, D(4) dopamine receptor (Homo sapiens, UniProt P21917); experiment: as §1, with “DRD4” for “DRD2”
T1 sequence (P21917 whole entry): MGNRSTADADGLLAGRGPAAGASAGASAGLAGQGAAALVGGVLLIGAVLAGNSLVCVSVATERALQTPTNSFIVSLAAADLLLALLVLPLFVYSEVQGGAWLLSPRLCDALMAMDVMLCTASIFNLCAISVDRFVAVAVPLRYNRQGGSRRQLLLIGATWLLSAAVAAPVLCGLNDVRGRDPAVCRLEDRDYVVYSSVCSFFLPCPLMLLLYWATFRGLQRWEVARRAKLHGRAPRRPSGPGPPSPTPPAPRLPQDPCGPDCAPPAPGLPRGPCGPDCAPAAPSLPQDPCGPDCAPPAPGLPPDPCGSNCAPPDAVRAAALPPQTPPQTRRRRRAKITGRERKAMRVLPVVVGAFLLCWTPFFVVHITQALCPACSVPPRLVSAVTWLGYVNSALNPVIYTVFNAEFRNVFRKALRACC

Translocator protein = Translocator protein (Homo sapiens, UniProt P30536); experiment: as §1, with “TSPO” for “DRD2”
Translocator protein, sequence (P30536 whole entry): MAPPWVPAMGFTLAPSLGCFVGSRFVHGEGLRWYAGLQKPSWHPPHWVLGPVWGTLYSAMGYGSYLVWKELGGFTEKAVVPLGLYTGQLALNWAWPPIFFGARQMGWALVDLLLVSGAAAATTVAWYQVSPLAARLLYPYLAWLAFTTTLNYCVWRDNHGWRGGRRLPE

Mu-type opioid receptor = Mu-type opioid receptor (Homo sapiens, UniProt P35372); experiment: as §1, with “OPRM1” for “DRD2”
Mu-type opioid receptor, sequence (P35372 whole entry): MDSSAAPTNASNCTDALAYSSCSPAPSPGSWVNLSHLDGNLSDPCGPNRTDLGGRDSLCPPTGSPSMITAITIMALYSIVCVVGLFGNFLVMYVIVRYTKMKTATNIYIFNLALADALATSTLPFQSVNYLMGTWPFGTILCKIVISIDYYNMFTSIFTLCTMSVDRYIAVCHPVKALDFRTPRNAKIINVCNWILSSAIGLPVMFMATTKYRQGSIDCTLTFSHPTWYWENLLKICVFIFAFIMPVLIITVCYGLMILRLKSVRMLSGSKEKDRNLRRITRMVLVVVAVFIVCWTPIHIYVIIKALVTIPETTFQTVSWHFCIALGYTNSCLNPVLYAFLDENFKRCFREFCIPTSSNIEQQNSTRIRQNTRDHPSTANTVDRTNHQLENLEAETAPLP

[1] = biological target: Sigma intracellular receptor 2 (Homo sapiens, UniProt Q5BJF2); experiment: as §1, with “TMEM97” for “DRD2”
Sigma intracellular receptor 2, sequence (Q5BJF2 whole entry): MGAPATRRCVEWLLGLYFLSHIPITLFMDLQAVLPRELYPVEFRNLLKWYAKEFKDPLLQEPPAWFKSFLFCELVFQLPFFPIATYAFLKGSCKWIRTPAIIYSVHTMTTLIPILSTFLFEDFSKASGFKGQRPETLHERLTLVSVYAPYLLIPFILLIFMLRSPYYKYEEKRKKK

[2] = biological target: Sodium-dependent noradrenaline transporter (Homo sapiens, UniProt P23975); experiment: as §1, with “SLC6A2” for “DRD2”
Sodium-dependent noradrenaline transporter, sequence (P23975 whole entry): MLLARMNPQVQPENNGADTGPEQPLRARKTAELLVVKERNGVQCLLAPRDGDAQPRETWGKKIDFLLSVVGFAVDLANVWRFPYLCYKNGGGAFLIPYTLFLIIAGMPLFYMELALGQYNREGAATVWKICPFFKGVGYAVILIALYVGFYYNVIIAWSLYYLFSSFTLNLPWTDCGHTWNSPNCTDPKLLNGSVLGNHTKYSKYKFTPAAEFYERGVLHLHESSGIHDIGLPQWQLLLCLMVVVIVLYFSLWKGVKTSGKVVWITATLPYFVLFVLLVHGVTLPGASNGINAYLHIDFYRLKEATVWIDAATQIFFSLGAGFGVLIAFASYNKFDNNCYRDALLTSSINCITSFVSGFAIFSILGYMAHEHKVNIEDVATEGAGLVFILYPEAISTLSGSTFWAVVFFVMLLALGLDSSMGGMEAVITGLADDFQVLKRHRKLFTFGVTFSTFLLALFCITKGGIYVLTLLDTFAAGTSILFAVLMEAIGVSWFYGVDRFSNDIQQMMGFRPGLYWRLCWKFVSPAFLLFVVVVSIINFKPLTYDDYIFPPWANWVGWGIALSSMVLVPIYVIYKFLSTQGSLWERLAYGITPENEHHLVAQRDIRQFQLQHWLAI

[3] = biological target: T2, 5-hydroxytryptamine receptor 2C (Homo sapiens, UniProt P28335); experiment: as §1, with “HTR2C” for “DRD2”
T2 sequence (P28335 whole entry): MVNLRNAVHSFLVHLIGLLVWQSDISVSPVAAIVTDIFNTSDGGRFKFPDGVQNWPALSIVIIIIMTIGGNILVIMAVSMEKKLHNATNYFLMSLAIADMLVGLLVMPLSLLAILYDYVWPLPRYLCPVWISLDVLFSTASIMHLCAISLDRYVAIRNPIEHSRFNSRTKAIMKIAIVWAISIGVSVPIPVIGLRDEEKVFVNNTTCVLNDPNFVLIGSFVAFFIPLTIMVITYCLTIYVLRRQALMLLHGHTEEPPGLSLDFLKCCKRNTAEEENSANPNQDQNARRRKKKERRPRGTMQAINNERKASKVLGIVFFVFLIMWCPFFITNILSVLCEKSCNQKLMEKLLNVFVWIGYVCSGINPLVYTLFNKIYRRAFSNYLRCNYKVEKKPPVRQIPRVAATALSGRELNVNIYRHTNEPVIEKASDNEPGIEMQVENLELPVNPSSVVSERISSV

[4] = biological target: Sodium-dependent dopamine transporter (Homo sapiens, UniProt Q01959); experiment: as §1, with “SLC6A3” for “DRD2”
Sodium-dependent dopamine transporter, sequence (Q01959 whole entry): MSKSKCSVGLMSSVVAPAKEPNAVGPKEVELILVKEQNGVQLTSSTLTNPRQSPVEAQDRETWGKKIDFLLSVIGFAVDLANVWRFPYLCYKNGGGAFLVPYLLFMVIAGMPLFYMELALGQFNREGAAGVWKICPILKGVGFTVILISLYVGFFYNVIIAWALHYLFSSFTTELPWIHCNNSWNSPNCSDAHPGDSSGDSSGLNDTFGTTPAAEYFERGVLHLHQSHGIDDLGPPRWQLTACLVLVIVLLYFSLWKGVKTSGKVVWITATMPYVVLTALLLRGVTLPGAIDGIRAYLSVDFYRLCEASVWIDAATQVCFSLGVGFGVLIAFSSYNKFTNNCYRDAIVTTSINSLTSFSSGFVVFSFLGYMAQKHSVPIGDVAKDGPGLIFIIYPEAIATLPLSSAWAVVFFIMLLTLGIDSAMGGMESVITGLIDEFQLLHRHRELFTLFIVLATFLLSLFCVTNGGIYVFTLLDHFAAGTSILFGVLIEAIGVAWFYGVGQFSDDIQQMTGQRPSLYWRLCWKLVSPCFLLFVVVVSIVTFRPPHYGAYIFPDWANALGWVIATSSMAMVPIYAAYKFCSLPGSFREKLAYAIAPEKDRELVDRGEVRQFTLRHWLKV

D(1B) dopamine receptor = D(1B) dopamine receptor (Homo sapiens, UniProt P21918); experiment: as §1, with “DRD5” for “DRD2”
D(1B) dopamine receptor, sequence (P21918 whole entry): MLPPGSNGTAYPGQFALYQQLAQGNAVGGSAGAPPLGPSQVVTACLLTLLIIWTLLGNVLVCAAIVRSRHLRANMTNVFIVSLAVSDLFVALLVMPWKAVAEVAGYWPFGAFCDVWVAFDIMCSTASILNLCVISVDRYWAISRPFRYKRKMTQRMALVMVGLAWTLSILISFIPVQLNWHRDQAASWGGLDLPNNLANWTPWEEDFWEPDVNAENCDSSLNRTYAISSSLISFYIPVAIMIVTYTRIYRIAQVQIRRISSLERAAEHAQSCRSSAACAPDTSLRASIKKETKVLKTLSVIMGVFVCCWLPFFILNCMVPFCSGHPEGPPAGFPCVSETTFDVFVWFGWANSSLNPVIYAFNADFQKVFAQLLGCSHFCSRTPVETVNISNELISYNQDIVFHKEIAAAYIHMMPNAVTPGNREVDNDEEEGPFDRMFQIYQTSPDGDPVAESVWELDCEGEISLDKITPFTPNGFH

[5] = biological target: 5-hydroxytryptamine receptor 2B (Homo sapiens, UniProt P41595); experiment: as §1, with “HTR2B” for “DRD2”
[6] = biological target: Kappa-type opioid receptor (Homo sapiens, UniProt P41145); experiment: as §1, with “OPRK1” for “DRD2”
[7] = biological target: 5-hydroxytryptamine receptor 2A (Homo sapiens, UniProt P28223); experiment: as §1, with “HTR2A” for “DRD2”
5-hydroxytryptamine receptor 2A, sequence (P28223 whole entry): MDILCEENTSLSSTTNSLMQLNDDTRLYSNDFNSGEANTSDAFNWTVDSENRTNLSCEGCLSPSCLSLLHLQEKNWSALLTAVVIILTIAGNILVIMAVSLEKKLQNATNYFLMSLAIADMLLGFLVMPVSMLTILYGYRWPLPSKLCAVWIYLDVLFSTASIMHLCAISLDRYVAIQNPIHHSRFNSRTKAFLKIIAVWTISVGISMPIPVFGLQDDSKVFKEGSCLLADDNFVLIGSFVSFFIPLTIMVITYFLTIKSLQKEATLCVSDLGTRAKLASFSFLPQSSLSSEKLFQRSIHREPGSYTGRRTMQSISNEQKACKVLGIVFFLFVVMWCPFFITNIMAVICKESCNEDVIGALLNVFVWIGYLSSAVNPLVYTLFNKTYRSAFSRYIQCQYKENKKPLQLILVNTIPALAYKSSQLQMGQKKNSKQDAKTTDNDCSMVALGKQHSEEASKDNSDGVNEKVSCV

[8] = biological target: Sigma non-opioid intracellular receptor 1 (Homo sapiens, UniProt Q99720); experiment: as §1, with “SIGMAR1” for “DRD2”
Sigma non-opioid intracellular receptor 1, sequence (Q99720 whole entry): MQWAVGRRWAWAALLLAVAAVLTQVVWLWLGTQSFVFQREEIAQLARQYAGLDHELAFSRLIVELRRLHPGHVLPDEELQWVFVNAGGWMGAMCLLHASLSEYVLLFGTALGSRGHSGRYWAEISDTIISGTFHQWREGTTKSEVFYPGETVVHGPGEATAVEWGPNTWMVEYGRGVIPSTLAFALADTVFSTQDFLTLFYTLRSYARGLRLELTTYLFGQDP

D(3) dopamine receptor = D(3) dopamine receptor (Homo sapiens, UniProt P35462); experiment: as §1, with “DRD3” for “DRD2”
[9] = biological target: T3, Alpha-2A adrenergic receptor (Homo sapiens, UniProt P08913); experiment: as §1, with “ADRA2A” for “DRD2”
T3 sequence (P08913 whole entry): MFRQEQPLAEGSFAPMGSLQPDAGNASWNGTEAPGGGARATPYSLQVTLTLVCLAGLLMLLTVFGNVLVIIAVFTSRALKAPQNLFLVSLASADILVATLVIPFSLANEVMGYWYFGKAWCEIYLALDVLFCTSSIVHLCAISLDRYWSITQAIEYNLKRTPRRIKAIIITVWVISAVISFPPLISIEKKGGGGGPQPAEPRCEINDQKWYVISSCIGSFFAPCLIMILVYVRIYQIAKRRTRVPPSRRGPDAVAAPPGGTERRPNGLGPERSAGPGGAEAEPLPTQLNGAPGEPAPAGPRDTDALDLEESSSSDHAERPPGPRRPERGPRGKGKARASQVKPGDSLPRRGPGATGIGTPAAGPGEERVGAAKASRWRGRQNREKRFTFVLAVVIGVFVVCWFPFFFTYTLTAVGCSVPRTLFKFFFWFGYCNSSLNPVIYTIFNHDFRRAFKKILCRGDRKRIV

[10] = biological target: T4, Alpha-2B adrenergic receptor (Homo sapiens, UniProt P18089); experiment: as §1, with “ADRA2B” for “DRD2”
T4 sequence (P18089 whole entry): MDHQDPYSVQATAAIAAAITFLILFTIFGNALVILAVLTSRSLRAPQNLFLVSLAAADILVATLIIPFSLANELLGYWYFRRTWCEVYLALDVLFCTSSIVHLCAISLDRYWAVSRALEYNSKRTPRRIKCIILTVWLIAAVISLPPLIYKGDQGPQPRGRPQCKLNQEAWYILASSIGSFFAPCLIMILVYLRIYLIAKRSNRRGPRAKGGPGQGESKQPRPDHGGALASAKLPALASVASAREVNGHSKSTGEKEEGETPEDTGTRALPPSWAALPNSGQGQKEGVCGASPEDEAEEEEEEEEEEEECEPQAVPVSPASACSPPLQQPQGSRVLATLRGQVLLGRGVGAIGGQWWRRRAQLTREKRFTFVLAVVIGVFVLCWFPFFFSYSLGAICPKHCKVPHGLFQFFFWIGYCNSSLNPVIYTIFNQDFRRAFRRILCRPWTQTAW

[11] = biological target: Sodium-dependent serotonin transporter (Homo sapiens, UniProt P31645); experiment: as §1, with “SLC6A4” for “DRD2”
Sodium-dependent serotonin transporter, sequence (P31645 whole entry): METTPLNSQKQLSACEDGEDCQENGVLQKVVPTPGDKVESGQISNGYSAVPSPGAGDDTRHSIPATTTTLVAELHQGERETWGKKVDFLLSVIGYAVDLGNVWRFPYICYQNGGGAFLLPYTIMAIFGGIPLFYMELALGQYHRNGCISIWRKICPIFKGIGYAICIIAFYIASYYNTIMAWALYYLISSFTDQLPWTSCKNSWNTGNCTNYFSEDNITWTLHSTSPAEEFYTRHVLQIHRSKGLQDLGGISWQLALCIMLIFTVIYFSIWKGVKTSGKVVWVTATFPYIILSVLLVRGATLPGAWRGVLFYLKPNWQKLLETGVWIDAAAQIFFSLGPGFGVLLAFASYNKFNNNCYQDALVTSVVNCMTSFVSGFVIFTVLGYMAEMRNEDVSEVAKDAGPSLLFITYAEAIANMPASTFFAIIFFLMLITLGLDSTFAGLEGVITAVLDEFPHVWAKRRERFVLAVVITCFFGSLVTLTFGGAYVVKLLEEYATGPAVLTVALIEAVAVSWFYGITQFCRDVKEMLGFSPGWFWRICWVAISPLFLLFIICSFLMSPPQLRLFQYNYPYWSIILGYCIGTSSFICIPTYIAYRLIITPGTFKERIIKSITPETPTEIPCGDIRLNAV

[12] = biological target: T5, Muscarinic acetylcholine receptor M5 (Homo sapiens, UniProt P08912); experiment: as §1, with “CHRM5” for “DRD2”
T5 sequence (P08912 whole entry): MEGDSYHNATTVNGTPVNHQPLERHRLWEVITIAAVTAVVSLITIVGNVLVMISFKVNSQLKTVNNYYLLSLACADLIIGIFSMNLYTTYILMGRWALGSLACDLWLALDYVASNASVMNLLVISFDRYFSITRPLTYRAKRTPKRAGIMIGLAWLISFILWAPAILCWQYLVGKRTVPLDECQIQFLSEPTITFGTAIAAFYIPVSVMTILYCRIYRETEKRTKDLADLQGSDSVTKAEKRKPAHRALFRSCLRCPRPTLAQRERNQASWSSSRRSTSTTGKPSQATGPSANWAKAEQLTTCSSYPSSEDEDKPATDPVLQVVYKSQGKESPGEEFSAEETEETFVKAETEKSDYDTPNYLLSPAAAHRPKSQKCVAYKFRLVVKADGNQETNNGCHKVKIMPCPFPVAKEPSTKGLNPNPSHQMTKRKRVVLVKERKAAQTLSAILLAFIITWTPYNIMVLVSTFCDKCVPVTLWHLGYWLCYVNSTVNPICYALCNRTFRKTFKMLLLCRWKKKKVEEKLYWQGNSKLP

[13] = biological target: 5-hydroxytryptamine receptor 7 (Homo sapiens, UniProt P34969); experiment: as §1, with “HTR7” for “DRD2”
[14] = biological target: 5-hydroxytryptamine receptor 1B (Homo sapiens, UniProt P28222); experiment: as §1, with “HTR1B” for “DRD2”
[15] = biological target: 5-hydroxytryptamine receptor 5A (Homo sapiens, UniProt P47898); experiment: as §1, with “HTR5A” for “DRD2”
5-hydroxytryptamine receptor 5A, sequence (P47898 whole entry): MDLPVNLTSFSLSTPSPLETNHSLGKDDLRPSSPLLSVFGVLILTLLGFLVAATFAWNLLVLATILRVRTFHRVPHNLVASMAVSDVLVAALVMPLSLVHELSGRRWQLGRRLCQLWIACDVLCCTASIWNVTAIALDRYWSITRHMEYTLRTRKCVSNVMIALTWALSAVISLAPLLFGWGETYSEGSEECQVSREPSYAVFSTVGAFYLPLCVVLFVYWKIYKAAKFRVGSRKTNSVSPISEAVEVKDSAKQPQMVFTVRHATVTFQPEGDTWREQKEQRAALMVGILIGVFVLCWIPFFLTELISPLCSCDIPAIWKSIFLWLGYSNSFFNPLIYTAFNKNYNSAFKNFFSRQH

Histamine H1 receptor = Histamine H1 receptor (Homo sapiens, UniProt P35367); experiment: as §1, with “HRH1” for “DRD2”
[16] = biological target: T6, Alpha-2C adrenergic receptor (Homo sapiens, UniProt P18825); experiment: as §1, with “ADRA2C” for “DRD2”
T6 sequence (P18825 whole entry): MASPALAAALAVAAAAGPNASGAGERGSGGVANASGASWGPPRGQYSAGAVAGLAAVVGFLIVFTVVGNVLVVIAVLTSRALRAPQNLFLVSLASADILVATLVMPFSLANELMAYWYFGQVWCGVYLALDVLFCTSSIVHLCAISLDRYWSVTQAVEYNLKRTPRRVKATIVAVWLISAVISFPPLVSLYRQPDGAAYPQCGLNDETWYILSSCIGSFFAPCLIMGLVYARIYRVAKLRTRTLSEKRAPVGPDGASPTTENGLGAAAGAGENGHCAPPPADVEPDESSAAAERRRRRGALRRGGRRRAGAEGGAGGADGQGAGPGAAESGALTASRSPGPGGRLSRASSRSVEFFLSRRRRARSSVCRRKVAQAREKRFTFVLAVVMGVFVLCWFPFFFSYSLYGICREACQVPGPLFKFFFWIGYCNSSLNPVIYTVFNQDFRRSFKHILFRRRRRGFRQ

Ki (D(2) dopamine receptor)	Ki (Mu-type opioid receptor)	Ki [1]	Ki [2]	Ki [4]	Ki [8]	Ki [11]	SMILES	also measured
3.85 µM	–	–	–	–	–	–	O=c1ccn([C@@H]2O[C@H](COP(=O)(O)OP(=O)(O)OP(=O)(O)O)[C@@H](O)[C@H]2O)c(=O)[nH]1	Ki (D(4) dopamine receptor): 8.73 µM; Ki (Translocator protein): 4.78 µM
–	3.14 µM	0.509 µM	2.54 µM	3.46 µM	–	–	O=C(c1cc2c(cc1F)OC(c1ccc(F)cc1)(c1ccc(Cl)cc1Cl)O2)N1CCOCC1 (stereo unspecified)	Ki [3]: 0.319 µM; Ki (D(1B) dopamine receptor): 0.708 µM; Ki [5]: 0.607 µM; Ki [6]: 0.503 µM; Ki [7]: 2.66 µM
–	–	–	–	–	2.61 µM	–	OC[C@H]1O[C@@H](n2cnc3c(NC4CCCC4)ncnc32)[C@H](O)[C@@H]1O [N6-CYCLOPENTYLADENOSINE]	Ki (D(1B) dopamine receptor): > 10 µM
8.81 µM	–	–	–	–	–	–	CC(C)(C(=O)O)c1ccc(C(O)CCCN2CCC(C(O)(c3ccccc3)c3ccccc3)CC2)cc1 (stereo unspecified) [FEXOFENADINE HYDROCHLORIDE]	–
–	0.249 µM	0.113 µM	1.67 µM	0.734 µM	0.256 µM	0.304 µM	COc1ccccc1N1CCN(CCCCNC(=O)c2ccc3ccccc3c2)CC1	Ki [13]: 0.0298 µM; Ki [14]: 0.166 µM; Ki [15]: 0.754 µM; Ki [10]: 0.132 µM; Ki (Translocator protein): 1.18 µM; Ki (Histamine H1 receptor): 0.125 µM; Ki [16]: 0.0836 µM
0.596 µM	–	0.956 µM	1.09 µM	–	1.7 µM	0.995 µM	Cc1cc(NC(=O)NCCN2CCC(O)(Cc3ccccc3)CC2)c2ccccc2n1 [PALOSURAN]	Ki [3]: 0.139 µM; Ki [9]: 1.02 µM; Ki [7]: 1.59 µM

SMILES	Ki (D(2) dopamine receptor)	Ki (Mu-type opioid receptor)	Ki [1]	Ki [2]	Ki [4]	Ki [8]	Ki [11]	also measured
OC1(c2ccc(Cl)cc2)CCN(Cc2c[nH]c3ccccc23)CC1	–	0.0515 µM	0.269 µM	1.47 µM	1.4 µM	–	0.0295 µM	Ki (D(3) dopamine receptor): 0.205 µM; Ki [9]: 3.85 µM; Ki (D(4) dopamine receptor): 0.569 µM; Ki [10]: 0.602 µM; Ki [12]: 0.579 µM
